Experimental data: patent US20050255568A1, “Methods and compositions for amino acid production” (priority 2003, published 2005)

How the values were obtained:
[1] = target: T1, C. glutamicum MetA (Corynebacterium glutamicum, UniProt O68640); format: biochemical
T1 construct: crude protein extracts derived from C. glutamicum strains MA-442 and MA-449 which contain both endogenous and episomal C. glutamicum MetA and MetY genes; expressed in transfected cells; host or cells: C. glutamicum MA-442 (MA-428 derivative of ATCC 13032) carrying episomal plasmid MB-4135 (lacIQ-trcRBS, C. glutamicum metA-RBS-metY, both wild type); crude extract
T1 sequence (O68640 1-377): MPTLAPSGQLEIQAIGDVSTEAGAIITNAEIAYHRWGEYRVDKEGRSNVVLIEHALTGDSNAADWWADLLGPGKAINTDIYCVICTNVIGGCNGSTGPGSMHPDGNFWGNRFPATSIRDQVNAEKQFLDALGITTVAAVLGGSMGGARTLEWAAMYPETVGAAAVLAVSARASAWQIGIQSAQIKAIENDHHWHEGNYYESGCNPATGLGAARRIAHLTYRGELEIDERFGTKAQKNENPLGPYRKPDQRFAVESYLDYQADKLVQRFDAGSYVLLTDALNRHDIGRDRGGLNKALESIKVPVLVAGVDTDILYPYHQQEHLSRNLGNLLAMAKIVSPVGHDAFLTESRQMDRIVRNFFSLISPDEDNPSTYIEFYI
Protocol: MetA activity in C. glutamicum expressing endogenous and episomal metA genes was determined. MetA activity was assayed in crude protein extracts using a protocol described by Kredich and Tomkins (J. Biol. Chem.241(21):4955-4965, 1966). […] Briefly, 1 μg of protein extract was added to a microtiter plate. Reaction mix (250 μl; 100 mM tris-HCl pH 7.5, 2mM 5,5′-Dithiobis(2-nitrobenzoic acid) (DTN), 2 mM sodium EDTA, 2 mM acetyl CoA, 2 mM homoserine) was added to each well of the microtiter plate. In the course of the reactions, MetA activity liberates CoA from acetyl-CoA. A disulfide interchange occurs between the CoA and DTN to produce thionitrobenzoic acid. The production of thionitrobenzoic acid is followed spectrophotometrically. Absorbance at 412 nm was measured every 5 minutes over a period of 30 minutes. A well without protein extract was included as a control. […] Inhibitors were added directly to the reaction mix before it was added to the protein extract. […] Experiments were performed in the presence and absence of IPTG that induces expression of the plasmid borne MetA and MetY genes.

[2] = target: T2, O-Acetylhomoserine sulfhydrylase (MetY) (Corynebacterium glutamicum, UniProt Q79VI4); conditions: cited from earlier work
T2 sequence (Q79VI4 1-437): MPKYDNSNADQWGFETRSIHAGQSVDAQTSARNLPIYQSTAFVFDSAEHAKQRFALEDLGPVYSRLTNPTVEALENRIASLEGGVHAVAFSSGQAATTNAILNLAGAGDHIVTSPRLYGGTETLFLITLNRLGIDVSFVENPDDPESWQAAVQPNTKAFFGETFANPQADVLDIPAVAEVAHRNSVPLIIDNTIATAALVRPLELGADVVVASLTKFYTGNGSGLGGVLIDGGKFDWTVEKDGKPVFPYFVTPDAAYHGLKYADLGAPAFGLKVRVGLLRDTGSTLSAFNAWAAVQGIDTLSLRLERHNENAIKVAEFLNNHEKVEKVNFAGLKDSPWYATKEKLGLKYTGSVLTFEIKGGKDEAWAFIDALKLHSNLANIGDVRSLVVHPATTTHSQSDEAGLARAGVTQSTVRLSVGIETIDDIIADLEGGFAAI

CSCC[C@H](N)C(=O)O [methionine]
MetA activity of MA-442 extracts in the presence of methionine ([1]; 5 mM methionine): reduced | reduction in MetY enzyme activity ([2]; 0.5 mM methionine, combined allosteric regulation and repression): 99% | MetY enzyme activity (in words) [2]: inhibited

N[C@@H](CCO)C(=O)O [homoserine]
MetY enzyme activity (in words) [2]: inhibited

CC(=O)OC[C@H](N)C(=O)O [O-acetylserine]
MetY enzyme activity (in words) [2]: inhibited

C[S+](CC[C@H](N)C(=O)[O-])C[C@H]1O[C@@H](n2cnc3c(N)ncnc32)[C@H](O)[C@@H]1O (stereo partly drawn) [S-AM, S-adenosyl methionine]
MetA activity of MA-442 extracts in the presence of S-AM ([1]; 0.2 mM S-AM): reduced
